# How the values were obtained:
# [1] = system: non-kinase drug target ligands listed in Table 5; assay: Drug target radioligand competitive binding assay, whole panel of Table 5; details: test substance 10 μM, summary of Table 5
# [2] = molecular target: Adenosine A3 (Homo sapiens (Human), UniProt P0DMS8); assay: Radioligand binding assay No. 200720; details: test substance 10 μM, read-out: Inhibitory rate (%), Adenosine A3
# [3] = system: GABAA, Flunitrazepam, Central; assay: Radioligand binding assay No. 226600; details: test substance 10 μM; rat
# [4] = system: kinases listed in Table 3; assay: Kinase selectivity, whole panel of Table 3; format: biochemical; details: summary in words
# Method: Object: In this assay, the inhibitory activity of the test substance on the kinases listed in Table 3 was determined, and therefore the selectivity of the present compound was determined.
# Except for the BRAF V600E kinase in Table 3, the Mobility shift assay was used for other kinases.
# • 1.1 1-fold kinase buffer without MnCl2: 50 mM HEPES, pH 7.5, 0.0015% Brij-35, 10 mM MgCl2, 2 mM DTT. • 1.2 1-fold kinase buffer with MnCl2: 50 mM HEPES, pH 7.5, 0.0015% Brij-35, 10 mM MgCl2, 10 mM MnCl2, 2 mM DTT. • 1.3 Termination solution: 100 mM HEPES, pH 7.5, 0.0015% Brij-35, 0.2% Coating Reagent#3, 50 mM EDTA. • 1.4 2.5-fold kinase solution: The kinase was added to the 1-fold kinase buffer to form a 2.5-fold kinase solution. • 1.5 2.5-fold substrate solution: FAM fluorescence-labelled polypeptide and ATP were added to the 1-fold kinase buffer to form a 2.5-fold substrate solution. 2. Preparation of 5-fold compound
# The final test concentration of the compound was 10 μM at maximum. Firstly, a 50-fold concentration (i.e. 500 μM) was prepared with 100% DMSO. The compound was diluted with 100% DMSO by 5 folds at 5 concentrations (successively 500 μM, 100 μM, 20 μM, 4 μM, and 0.8 μM). […]
# • 3.1 To the 384-well reaction plate was added 5-fold compound dissolved in 10% DMSO at 5 μl/well. • 3.2 To the 384-well reaction plate was added 2.5-fold kinase solution at 10 μl/well. […] The conversion was read from Caliper. […]
# [5] = molecular target: Adenosine A1 (Homo sapiens (Human), UniProt P30542); assay: Radioligand binding assay No. 200510; details: test substance 10 μM, read-out: Inhibitory rate (%), Adenosine A1
# [6] = system: Sodium Channel, Site2; assay: Radioligand binding assay No. 279510; details: test substance 10 μM; rat
# [7] = molecular target: Adrenergic α1D (Homo sapiens (Human), UniProt P25100); assay: Radioligand binding assay No. 203400; details: test substance 10 μM, read-out: Inhibitory rate (%), Adrenergic α1D
# [8] = molecular target: Interleukin IL-1 (Mus musculus (Mouse), UniProt P13504); assay: Radioligand binding assay No. 243520; details: test substance 10 μM, read-out: Inhibitory rate (%), Interleukin IL-1
# [9] = molecular target: Neuropeptide Y Y2 (Homo sapiens (Human), UniProt P49146); assay: Radioligand binding assay No. 257110; details: test substance 10 μM, read-out: Inhibitory rate (%), Neuropeptide Y Y2
# [10] = system: Thyroid Hormone; assay: Radioligand binding assay No. 285900; details: test substance 10 μM; rat
# [11] = molecular target: Histamine H2 (Homo sapiens (Human), UniProt P25021); assay: Radioligand binding assay No. 239710; details: test substance 10 μM, read-out: Inhibitory rate (%), Histamine H2
# [12] = molecular target: GABAB1A (Homo sapiens (Human), UniProt Q9UBS5); assay: Radioligand binding assay No. 228610; details: test substance 10 μM, read-out: Inhibitory rate (%), GABAB1A
# [13] = molecular target: Adrenergic α1A (Rattus norvegicus (Rat), UniProt P43140); assay: Radioligand binding assay No. 203100; details: test substance 10 μM, read-out: Inhibitory rate (%), Adrenergic α1A
# [14] = molecular target: Adrenergic β2 (Homo sapiens (Human), UniProt P07550); assay: Radioligand binding assay No. 204110; details: test substance 10 μM, read-out: Inhibitory rate (%), Adrenergic β2
# [15] = molecular target: Calcium Channel N-Type (Rattus norvegicus (Rat), UniProt Q02294); assay: Radioligand binding assay No. 216000; details: test substance 10 μM, read-out: Inhibitory rate (%), Calcium Channel N-Type
# Calcium Channel N-Type, sequence (Q02294 whole entry): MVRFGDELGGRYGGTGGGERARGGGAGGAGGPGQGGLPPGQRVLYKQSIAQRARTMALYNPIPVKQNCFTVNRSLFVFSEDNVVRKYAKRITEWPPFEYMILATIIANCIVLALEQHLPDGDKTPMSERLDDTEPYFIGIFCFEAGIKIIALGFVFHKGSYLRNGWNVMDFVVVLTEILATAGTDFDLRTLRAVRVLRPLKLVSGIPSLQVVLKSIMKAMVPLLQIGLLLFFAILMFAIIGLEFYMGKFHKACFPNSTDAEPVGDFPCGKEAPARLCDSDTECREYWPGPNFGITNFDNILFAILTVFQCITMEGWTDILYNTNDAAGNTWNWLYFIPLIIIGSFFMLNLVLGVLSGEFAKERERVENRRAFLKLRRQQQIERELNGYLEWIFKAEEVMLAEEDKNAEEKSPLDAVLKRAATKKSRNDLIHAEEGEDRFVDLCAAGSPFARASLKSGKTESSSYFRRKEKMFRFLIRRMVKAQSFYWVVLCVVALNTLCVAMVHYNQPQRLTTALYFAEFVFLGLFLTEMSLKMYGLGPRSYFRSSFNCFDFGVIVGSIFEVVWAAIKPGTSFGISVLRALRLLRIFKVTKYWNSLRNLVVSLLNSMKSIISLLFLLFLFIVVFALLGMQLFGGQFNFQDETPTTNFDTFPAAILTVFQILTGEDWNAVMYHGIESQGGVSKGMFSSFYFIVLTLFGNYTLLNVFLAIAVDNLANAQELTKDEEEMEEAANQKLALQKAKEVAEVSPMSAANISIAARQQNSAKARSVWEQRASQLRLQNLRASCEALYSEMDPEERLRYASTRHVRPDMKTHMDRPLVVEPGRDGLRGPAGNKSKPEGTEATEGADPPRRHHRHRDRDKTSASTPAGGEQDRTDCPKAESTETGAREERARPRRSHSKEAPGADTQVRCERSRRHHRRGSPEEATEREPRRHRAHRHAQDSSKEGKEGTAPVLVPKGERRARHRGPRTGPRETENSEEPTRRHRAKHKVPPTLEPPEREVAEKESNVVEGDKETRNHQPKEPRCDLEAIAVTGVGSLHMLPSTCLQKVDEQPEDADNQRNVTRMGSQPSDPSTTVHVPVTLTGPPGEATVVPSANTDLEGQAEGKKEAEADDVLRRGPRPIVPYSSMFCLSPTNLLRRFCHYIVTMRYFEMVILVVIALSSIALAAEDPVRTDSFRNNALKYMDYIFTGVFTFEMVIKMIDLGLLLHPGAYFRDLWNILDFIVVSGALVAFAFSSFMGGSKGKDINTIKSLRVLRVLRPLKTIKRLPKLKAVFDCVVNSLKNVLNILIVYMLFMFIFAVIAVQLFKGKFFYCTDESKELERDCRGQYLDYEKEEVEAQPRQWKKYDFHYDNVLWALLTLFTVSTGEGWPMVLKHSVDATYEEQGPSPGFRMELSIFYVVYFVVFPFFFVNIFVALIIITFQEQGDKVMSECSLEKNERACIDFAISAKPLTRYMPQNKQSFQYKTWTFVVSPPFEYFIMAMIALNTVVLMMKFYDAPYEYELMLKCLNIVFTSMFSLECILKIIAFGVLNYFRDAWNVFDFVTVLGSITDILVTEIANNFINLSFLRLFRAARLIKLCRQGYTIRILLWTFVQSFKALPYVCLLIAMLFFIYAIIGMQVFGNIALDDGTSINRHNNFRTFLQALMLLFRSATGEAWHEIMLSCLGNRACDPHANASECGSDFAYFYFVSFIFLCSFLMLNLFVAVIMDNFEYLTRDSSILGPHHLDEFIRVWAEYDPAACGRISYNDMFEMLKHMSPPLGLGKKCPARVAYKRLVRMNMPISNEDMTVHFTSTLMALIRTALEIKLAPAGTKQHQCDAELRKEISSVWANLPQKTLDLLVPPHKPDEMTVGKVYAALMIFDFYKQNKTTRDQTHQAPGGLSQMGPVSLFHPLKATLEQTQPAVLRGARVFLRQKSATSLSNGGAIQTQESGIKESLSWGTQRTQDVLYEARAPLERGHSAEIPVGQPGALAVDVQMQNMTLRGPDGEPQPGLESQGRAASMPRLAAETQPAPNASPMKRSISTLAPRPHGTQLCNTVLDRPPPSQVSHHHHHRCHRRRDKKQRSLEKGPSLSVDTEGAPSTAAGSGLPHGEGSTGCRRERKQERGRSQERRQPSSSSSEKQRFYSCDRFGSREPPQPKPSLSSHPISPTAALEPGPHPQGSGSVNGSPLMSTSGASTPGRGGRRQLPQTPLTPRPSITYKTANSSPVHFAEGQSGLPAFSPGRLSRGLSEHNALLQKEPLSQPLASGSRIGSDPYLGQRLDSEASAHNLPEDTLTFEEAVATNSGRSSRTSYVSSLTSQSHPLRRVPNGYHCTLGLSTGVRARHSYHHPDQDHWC
# Adenosine A3, sequence (P0DMS8 whole entry): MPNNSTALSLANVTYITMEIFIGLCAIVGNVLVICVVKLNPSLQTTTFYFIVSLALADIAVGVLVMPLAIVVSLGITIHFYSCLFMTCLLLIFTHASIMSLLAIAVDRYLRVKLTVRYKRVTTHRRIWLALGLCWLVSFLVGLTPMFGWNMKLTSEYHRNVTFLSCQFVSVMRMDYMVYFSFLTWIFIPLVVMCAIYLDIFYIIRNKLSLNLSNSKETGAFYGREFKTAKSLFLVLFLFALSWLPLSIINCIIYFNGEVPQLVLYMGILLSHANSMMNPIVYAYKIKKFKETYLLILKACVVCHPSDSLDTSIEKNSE
# Adenosine A1, sequence (P30542 whole entry): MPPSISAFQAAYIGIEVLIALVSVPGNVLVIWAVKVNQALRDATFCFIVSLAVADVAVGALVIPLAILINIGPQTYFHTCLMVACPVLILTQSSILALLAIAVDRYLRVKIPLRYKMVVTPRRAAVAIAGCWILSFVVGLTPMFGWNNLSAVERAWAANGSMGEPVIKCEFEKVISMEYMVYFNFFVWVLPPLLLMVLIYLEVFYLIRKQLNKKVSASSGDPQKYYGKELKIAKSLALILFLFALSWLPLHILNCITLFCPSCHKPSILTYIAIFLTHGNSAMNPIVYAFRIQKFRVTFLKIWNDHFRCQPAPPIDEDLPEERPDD
# Adrenergic α1A, sequence (P43140 whole entry): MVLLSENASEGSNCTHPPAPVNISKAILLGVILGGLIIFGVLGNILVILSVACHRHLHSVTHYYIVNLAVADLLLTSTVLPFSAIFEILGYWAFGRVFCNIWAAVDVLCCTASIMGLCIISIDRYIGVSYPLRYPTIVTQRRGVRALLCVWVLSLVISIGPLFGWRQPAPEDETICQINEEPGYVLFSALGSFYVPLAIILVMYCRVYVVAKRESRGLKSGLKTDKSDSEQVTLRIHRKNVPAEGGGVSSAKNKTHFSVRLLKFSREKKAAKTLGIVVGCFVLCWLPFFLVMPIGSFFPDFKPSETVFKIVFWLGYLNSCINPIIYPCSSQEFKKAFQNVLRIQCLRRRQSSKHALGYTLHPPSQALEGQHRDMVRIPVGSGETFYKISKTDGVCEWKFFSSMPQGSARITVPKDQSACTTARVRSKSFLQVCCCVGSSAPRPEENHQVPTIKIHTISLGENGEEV
# Adrenergic α1D, sequence (P25100 whole entry): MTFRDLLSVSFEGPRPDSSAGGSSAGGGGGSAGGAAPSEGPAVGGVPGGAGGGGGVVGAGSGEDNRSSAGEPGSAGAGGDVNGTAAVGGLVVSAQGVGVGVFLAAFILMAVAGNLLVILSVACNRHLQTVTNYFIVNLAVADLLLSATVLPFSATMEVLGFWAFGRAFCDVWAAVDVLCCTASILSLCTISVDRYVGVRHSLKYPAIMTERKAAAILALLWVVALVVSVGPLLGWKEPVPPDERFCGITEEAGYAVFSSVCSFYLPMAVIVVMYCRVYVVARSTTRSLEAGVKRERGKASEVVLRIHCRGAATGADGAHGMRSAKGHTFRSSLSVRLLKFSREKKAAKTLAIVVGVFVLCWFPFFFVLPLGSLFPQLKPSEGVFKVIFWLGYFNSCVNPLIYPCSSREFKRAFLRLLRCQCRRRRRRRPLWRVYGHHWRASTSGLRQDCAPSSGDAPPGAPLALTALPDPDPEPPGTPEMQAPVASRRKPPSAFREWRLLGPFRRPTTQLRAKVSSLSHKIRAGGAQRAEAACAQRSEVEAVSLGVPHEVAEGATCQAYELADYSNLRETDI
# GABAB1A, sequence (Q9UBS5 15-961): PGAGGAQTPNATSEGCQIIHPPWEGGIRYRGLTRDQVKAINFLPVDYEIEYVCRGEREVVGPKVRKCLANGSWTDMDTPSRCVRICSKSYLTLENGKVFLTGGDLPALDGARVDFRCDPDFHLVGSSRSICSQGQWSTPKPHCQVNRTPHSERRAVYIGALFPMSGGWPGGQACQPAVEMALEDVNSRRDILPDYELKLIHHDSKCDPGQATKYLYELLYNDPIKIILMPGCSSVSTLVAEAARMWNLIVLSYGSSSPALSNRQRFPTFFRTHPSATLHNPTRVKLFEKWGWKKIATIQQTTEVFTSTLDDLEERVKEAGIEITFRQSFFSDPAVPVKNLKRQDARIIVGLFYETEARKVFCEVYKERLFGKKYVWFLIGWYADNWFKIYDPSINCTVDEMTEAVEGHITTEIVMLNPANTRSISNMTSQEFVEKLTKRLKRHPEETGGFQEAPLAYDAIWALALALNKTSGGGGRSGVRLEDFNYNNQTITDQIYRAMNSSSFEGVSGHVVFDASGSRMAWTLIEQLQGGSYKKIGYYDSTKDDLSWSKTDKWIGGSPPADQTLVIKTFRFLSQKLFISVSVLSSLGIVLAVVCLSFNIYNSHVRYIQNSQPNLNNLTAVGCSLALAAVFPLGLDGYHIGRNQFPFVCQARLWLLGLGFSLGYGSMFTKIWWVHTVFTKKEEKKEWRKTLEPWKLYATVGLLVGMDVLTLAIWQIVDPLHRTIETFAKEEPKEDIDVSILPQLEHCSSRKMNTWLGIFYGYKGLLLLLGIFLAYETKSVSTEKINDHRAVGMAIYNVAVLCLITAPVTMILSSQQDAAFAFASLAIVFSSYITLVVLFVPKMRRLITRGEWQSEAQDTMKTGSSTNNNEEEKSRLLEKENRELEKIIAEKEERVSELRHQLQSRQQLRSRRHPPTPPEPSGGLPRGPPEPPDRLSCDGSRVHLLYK
compound,measurement,setting,value
"Nc1ccc(-c2ccc3ncc4c(=O)[nH]c(=O)n(-c5cccc(C(F)(F)F)c5)c4c3n2)cn1 [Compound 5, 9-(6-aminopyridin-3-yl)-1-(3-(trifluoromethyl)phenyl)pyrimido[5,4-c][1,5]naphthyridine-2,4(1H,3H)-dione]",inhibitory rates on the listed non-kinase drug target ligands,[1],less than 50%
same,inhibition at 10 µM,[2],11%
same,"Inhibitory rate (%), GABAA, Flunitrazepam, Central",[3],34%
same,inhibitory activity for the kinases listed in Table 3,[4],no inhibitory activity
same,inhibition at 10 µM,[5],20%
same,"Inhibitory rate (%), Sodium Channel, Site2",[6],7%
same,inhibition at 10 µM,[7],9%
same,inhibition at 10 µM,[8],11%
same,inhibition at 10 µM,[9],10%
same,"Inhibitory rate (%), Thyroid Hormone",[10],9%
same,inhibition at 10 µM,[11],-2%
same,inhibition at 10 µM,[12],15%
same,inhibition at 10 µM,[13],13%
same,inhibition at 10 µM,[14],17%
same,inhibition at 10 µM,[15],-22%

# Reference: patent publication US9365572B2, “PI3K and/or mTOR inhibitor” (XUANZHU PHARMA CO., LTD., priority 2012, dated 2016)
